PubChem BioAssay (NCI)
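Step 1: Grow cells in 96-well plates. Step 2: Expose to compound for 48 hours at 5 concentrations. Step 3: Interpolate endpoints linearly; if unreached, use highest concentration. GI50 marks 50% less growth. TGI is the concentration that stops growth completely.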

Legend:
Test in all cases: NCI tumour cell line growth inhibition, 48 h
786-0 renal = test system: 786-0 renal
A498 renal = test system: A498 renal
A549 NSCLC = test system: A549 NSCLC
ACHN renal = test system: ACHN renal
BT-549 breast = test system: BT-549 breast
CAKI-1 renal = test system: CAKI-1 renal
CCRF-CEM leukemia = test system: CCRF-CEM leukemia
COLO 205 colon = test system: COLO 205 colon
DU-145 prostate = test system: DU-145 prostate
EKVX NSCLC = test system: EKVX NSCLC
HCC-2998 colon = test system: HCC-2998 colon
HCT-116 colon = test system: HCT-116 colon
HCT-15 colon = test system: HCT-15 colon
HL-60(TB) leukemia = test system: HL-60(TB) leukemia
HOP-62 NSCLC = test system: HOP-62 NSCLC
HOP-92 NSCLC = test system: HOP-92 NSCLC
HS 578T breast = test system: HS 578T breast
HT29 colon = test system: HT29 colon
IGROV1 ovarian = test system: IGROV1 ovarian
K-562 leukemia = test system: K-562 leukemia
KM12 colon = test system: KM12 colon
LOX IMVI melanoma = test system: LOX IMVI melanoma
M14 melanoma = test system: M14 melanoma
MALME-3M melanoma = test system: MALME-3M melanoma
MCF7 breast = test system: MCF7 breast
MDA-MB-231 breast = test system: MDA-MB-231 breast
MDA-MB-435 = test system: MDA-MB-435
MOLT-4 leukemia = test system: MOLT-4 leukemia
NCI-H226 lung = test system: NCI-H226 lung
NCI-H23 lung = test system: NCI-H23 lung
NCI-H460 lung = test system: NCI-H460 lung
NCI-H522 lung = test system: NCI-H522 lung
NCI/ADR-RES ovarian = test system: NCI/ADR-RES ovarian
OVCAR-3 ovarian = test system: OVCAR-3 ovarian
OVCAR-4 ovarian = test system: OVCAR-4 ovarian
OVCAR-5 ovarian = test system: OVCAR-5 ovarian
OVCAR-8 ovarian = test system: OVCAR-8 ovarian
PC-3 prostate = test system: PC-3 prostate
RPMI-8226 leukemia = test system: RPMI-8226 leukemia
RXF 393 renal = test system: RXF 393 renal
SF-268 CNS = test system: SF-268 CNS
SF-295 CNS = test system: SF-295 CNS
SF-539 CNS = test system: SF-539 CNS
SK-MEL-2 melanoma = test system: SK-MEL-2 melanoma
SK-MEL-28 melanoma = test system: SK-MEL-28 melanoma
SK-MEL-5 melanoma = test system: SK-MEL-5 melanoma
SK-OV-3 ovarian = test system: SK-OV-3 ovarian
SN12C renal = test system: SN12C renal
SNB-19 CNS = test system: SNB-19 CNS
SNB-75 CNS = test system: SNB-75 CNS
SR leukemia = test system: SR leukemia
SW-620 colon = test system: SW-620 colon
T-47D breast = test system: T-47D breast
TK-10 renal = test system: TK-10 renal
U251 CNS = test system: U251 CNS
UACC-257 melanoma = test system: UACC-257 melanoma
UO-31 renal = test system: UO-31 renal

COc1cc(OC)c(C(=O)/C=C/c2cccc(OC(C)=O)c2)cc1CC=C(C)C
GI50 (786-0 renal): 9.85 µM | TGI (786-0 renal): 19.8 µM | GI50 (A498 renal): 16.9 µM | TGI (A498 renal): > 50 µM | GI50 (A549 NSCLC): 15.2 µM | TGI (A549 NSCLC): > 50 µM | GI50 (ACHN renal): 10.1 µM | TGI (ACHN renal): 29.2 µM | GI50 (BT-549 breast): 6.28 µM | TGI (BT-549 breast): 36.6 µM | GI50 (CAKI-1 renal): 23.2 µM | TGI (CAKI-1 renal): > 50 µM | GI50 (CCRF-CEM leukemia): 7 µM | TGI (CCRF-CEM leukemia): 31 µM | GI50 (COLO 205 colon): 6.96 µM | TGI (COLO 205 colon): 14.2 µM | GI50 (DU-145 prostate): 6.18 µM | TGI (DU-145 prostate): 14.6 µM | GI50 (EKVX NSCLC): 30.2 µM | TGI (EKVX NSCLC): > 50 µM | GI50 (HCC-2998 colon): 8.87 µM | TGI (HCC-2998 colon): 16.2 µM | GI50 (HCT-116 colon): 3 µM | TGI (HCT-116 colon): 9.78 µM | GI50 (HCT-15 colon): 5.74 µM | TGI (HCT-15 colon): 14.4 µM | GI50 (HL-60(TB) leukemia): 13.3 µM | TGI (HL-60(TB) leukemia): > 50 µM | GI50 (HOP-62 NSCLC): 10.4 µM | TGI (HOP-62 NSCLC): 19.6 µM | GI50 (HOP-92 NSCLC): 8.52 µM | TGI (HOP-92 NSCLC): 39.8 µM | GI50 (HS 578T breast): > 50 µM | TGI (HS 578T breast): > 50 µM | GI50 (HT29 colon): 5.92 µM | TGI (HT29 colon): 17.3 µM | GI50 (IGROV1 ovarian): 15.9 µM | TGI (IGROV1 ovarian): > 50 µM | GI50 (K-562 leukemia): 8.56 µM | TGI (K-562 leukemia): > 50 µM | GI50 (KM12 colon): 7.16 µM | TGI (KM12 colon): 14.8 µM | GI50 (LOX IMVI melanoma): 6.29 µM | TGI (LOX IMVI melanoma): 13.1 µM | GI50 (M14 melanoma): 7.3 µM | TGI (M14 melanoma): 18.2 µM | GI50 (MALME-3M melanoma): 10.6 µM | TGI (MALME-3M melanoma): 33.3 µM | GI50 (MCF7 breast): 2.54 µM | TGI (MCF7 breast): 44 µM | GI50 (MDA-MB-231 breast): 13.1 µM | TGI (MDA-MB-231 breast): > 50 µM | GI50 (MDA-MB-435): 5.67 µM | TGI (MDA-MB-435): 31.1 µM | GI50 (MOLT-4 leukemia): 7.64 µM | TGI (MOLT-4 leukemia): 43.6 µM | GI50 (NCI-H226 lung): 12.8 µM | TGI (NCI-H226 lung): 40.7 µM | GI50 (NCI-H23 lung): 8.05 µM | TGI (NCI-H23 lung): 18.5 µM | GI50 (NCI-H460 lung): 6.57 µM | TGI (NCI-H460 lung): 17.8 µM | GI50 (NCI-H522 lung): 8.76 µM | TGI (NCI-H522 lung): 22.2 µM | GI50 (NCI/ADR-RES ovarian): 7.62 µM | TGI (NCI/ADR-RES ovarian): 31.3 µM | GI50 (OVCAR-3 ovarian): 3.44 µM | TGI (OVCAR-3 ovarian): 12.6 µM | GI50 (OVCAR-4 ovarian): 5.73 µM | TGI (OVCAR-4 ovarian): > 50 µM | GI50 (OVCAR-5 ovarian): 11.9 µM | TGI (OVCAR-5 ovarian): 22.5 µM | GI50 (OVCAR-8 ovarian): 8.38 µM | TGI (OVCAR-8 ovarian): > 50 µM | GI50 (PC-3 prostate): 9.4 µM | TGI (PC-3 prostate): 44 µM | GI50 (RPMI-8226 leukemia): 8.94 µM | TGI (RPMI-8226 leukemia): 33.7 µM | GI50 (RXF 393 renal): 10.2 µM | TGI (RXF 393 renal): 32.3 µM | GI50 (SF-268 CNS): 7.26 µM | TGI (SF-268 CNS): 22.7 µM | GI50 (SF-295 CNS): 11.9 µM | TGI (SF-295 CNS): > 50 µM | GI50 (SF-539 CNS): 8.62 µM | TGI (SF-539 CNS): 16.2 µM | GI50 (SK-MEL-2 melanoma): 8.9 µM | TGI (SK-MEL-2 melanoma): 35.6 µM | GI50 (SK-MEL-28 melanoma): 9.52 µM | TGI (SK-MEL-28 melanoma): 22.2 µM | GI50 (SK-MEL-5 melanoma): 6.47 µM | TGI (SK-MEL-5 melanoma): 13.3 µM | GI50 (SK-OV-3 ovarian): 10.9 µM | TGI (SK-OV-3 ovarian): 28.2 µM | GI50 (SN12C renal): 9.87 µM | TGI (SN12C renal): > 50 µM | GI50 (SNB-19 CNS): 9.2 µM | TGI (SNB-19 CNS): 17.2 µM | GI50 (SNB-75 CNS): 4.68 µM | TGI (SNB-75 CNS): 11.8 µM | GI50 (SR leukemia): 1.74 µM | TGI (SR leukemia): 16.1 µM | GI50 (SW-620 colon): 7.02 µM | TGI (SW-620 colon): 18.5 µM | GI50 (T-47D breast): 4.15 µM | TGI (T-47D breast): 16.7 µM | GI50 (TK-10 renal): 23.6 µM | TGI (TK-10 renal): > 50 µM | GI50 (U251 CNS): 6.91 µM | TGI (U251 CNS): 14.7 µM | GI50 (UACC-257 melanoma): 10.4 µM | TGI (UACC-257 melanoma): 36.8 µM | GI50 (UO-31 renal): 15.9 µM | TGI (UO-31 renal): > 50 µM
